Data from patent US20140243210A1, “PURIFICATION OF IMMUNOGLOBULINS USING AFFINITY CHROMATOGRAPHY AND PEPTIDE LIGANDS” (priority 2005, published 2014).
“And” between values parts separate entries of the source, which are not always exact repeats. Equal values may be shown once. Read-outs that look alike come from different tables or passages of the source. No end group written: not given here.

Columns and labels:
[1] = test system: IgG; details: cited from earlier work
[2] = test system: intact HIgG; assay: Secondary screening, batch format, competitive and non-competitive modes; assay type: binding, human; details: for Competitive condition, Bound / Competitive condition, Unbound / Non-competitive, Bound / Non-competitive, Unbound: second round; for Competitive condition, Bound / Competitive condition, Unbound: HIgG in MEM, radiolabel extent 2.9%; for Non-competitive, Bound / Non-competitive, Unbound: HIgG in PBS; for Bound %, HIgG, Competitive / Bound %, HIgG, Non-competitive (Micro-BCA): first round; for Bound %, HIgG, Competitive: 14C-HIgG 1 μM spiked in MEM (10% FCS, 5% TPB), radiolabel extent 3.6%; for Bound %, HIgG, Non-competitive (Micro-BCA): pure HIgG 1 μM in PBS
Experimental: (§1) The batch format was used in both competitive and non-competitive modes. The non-competitive mode involved screening using only pure target proteins in PBS buffer. For the competitive mode, target proteins were spiked into mammalian culture medium MEM (Minimum Essential Medium) containing 10% fetal calf serum (FCS) and 5% tryptose phosphate broth (TPB).
(§2) Two target proteins, the Fc fragment of human IgG (HIgG) and intact HIgG, were applied at a concentration of 1 μM. To carry out the secondary screening, 20 mg of the re-synthesized resins were swelled with 20% methanol for one hour, then washed thoroughly and equilibrated with PBS buffer. The beads were incubated with 400 μl of 1 μM 14C-Fc or 14C-IgG in the corresponding solutions in a 0.5 ml centrifuge filter with a 0.45 μm Durapore membrane (Millipore, Milford, Mass.) on a rotating plate for two hours. The particles were washed with PBS buffer for 15 min, and then sequentially washed for one hour each with 400 of: 1 M NaCl in PBS, then 2% acetic acid (AcOH) and 6 M guanidine chloride (GdnHCl). After centrifugation each solution was collected into scintillation fluid for radioactivity counting. The total unbound protein was determined by combining the counts of unbound protein and the wash of PBS. Finally, resins were suspended in scintillation liquid and counted for radioactivity in the same manner, allowing a total radioactivity balance.

[3] = test system: HIgG; assay: Adsorption isotherm measurements, Langmuir model; assay type: binding, human
Experimental: Individual peptide sequences determined to bind the Fc fragment of HIgG in primary screening were synthesized directly onto Toyopearl AF-amino-650 M resin (Tosoh BioSciences, Montgomeryville, Pa.) at a substitution of 100 μmol/g resin (Peptides International, Louisville, Ky.). […] Adsorption isotherms were measured in a set of batch experiments at room temperature. All the experiments were performed at least in duplicate. Beads were washed thoroughly and equilibrated with PBS buffer. Centrifugal filters (0.5 ml) with 0.45 μm Durapore membranes (Millipore, Milford, Mass.) were used as adsorption vessels. Resins (10 mg of resin in each vessel) were then equilibrated overnight in PBS, pH 7.4 (Sigma Chemical, St. Louis, Mo.). After removing the PBS, 400 μl of HIgG solutions with concentrations from 0.05 to 10 mg/ml in PBS were added separately to the reaction vessels and incubated on an orbital shaker for 2 hours. The unbound HIgG fractions were collected by centrifugation and the protein concentrations were determined using a Micro-BCA Assay (Pierce, Rockford, Ill.) or by UV-absorbance at 280 nm. The amount of bound HIgG was calculated by mass balance. The data were fit to a Langmuir isotherm model (see Equation 2, below).
where, q=Concentration of bound adsorbate mg-protein/g-resin C=Concentration of free adsorbate mg-protein/ml-solution Kd=Dissociation constant mg/ml qm=Maximum capacity constant mg-protein/g-resin

[4] = test system: Fc fragment of human IgG (HIgG); assay: Secondary screening, batch format, competitive and non-competitive modes; assay type: binding; details: first round; for Bound %, Fc fragment, Non-competitive: 14C-Fc 1 μM in PBS; for Bound %, Fc fragment, Competitive: 14C-Fc 1 μM spiked in MEM (10% FCS, 5% TPB)
Experimental: as §1, §2

[5] = Table 6, direct Langmuir fit, 0.1 meq/g, PBS pH 7.4
[6] = direct Langmuir fit, PBS pH 7.4, room temperature, peptides 0.1 meq/g, read-out: Kd, Langmuir
[7] = direct Langmuir fit, PBS pH 7.4, peptides 0.1 meq/g
[8] = double reciprocal curve, PBS pH 7.4, room temperature, peptides 0.1 meq/g, read-out: Kd, DR curve
[9] = double reciprocal curve, PBS pH 7.4, peptides 0.1 meq/g
[10] = substitution 0.080 mmol/g, read-out: Kd

Substance: (RTY)4K2KG [TG19318 (PAM)]
- Capacity ([1]; Epoxy-activated Eupergit C30N support): 25 mg/ml mg/ml gel

Substance: HWGPTK (not fully specified (C-terminus)) [hexapeptide ligand on Toyopearl resin]
- Competitive condition, Bound [2]: 19.93%
- Competitive condition, Unbound [2]: 80.07%
- Non-competitive, Bound [2]: 14.39%
- Non-competitive, Unbound [2]: 85.61%

Substance: truncation of the subunit GFRKYLHFRRHLL of a multiple antigenic peptide (MAP) (Immunoglobulin binding peptide sequence)
- Competitive condition, Unbound [2]: 59.13%
- qm [3, 5]: 157.9 mg/g

Substance: HDVFHT (not fully specified (C-terminus)) [hexapeptide ligand on Toyopearl resin]
- Competitive condition, Bound [2]: 8.55%
- Competitive condition, Unbound [2]: 91.45%

Substance: WHWRKR [reference compound]
- Kd [3, 6]: 1.39 µM
- qm, Langmuir [3, 7]: 62.4 mg/g
- Kd [3, 8]: 2.47 µM
- qm, DR curve [3, 9]: 81.9 mg/g

Substance: HIWA (not fully specified (C-terminus))
- Competitive condition, Bound [2]: 12.87%
- Competitive condition, Unbound [2]: 87.13%
- Non-competitive, Bound [2]: 7.90%
- Non-competitive, Unbound [2]: 92.10%

Substance: KGEA (not fully specified (C-terminus))
- Competitive condition, Bound [2]: 7.34%
- Competitive condition, Unbound [2]: 92.66%
- Non-competitive, Bound [2]: 6.08%
- Non-competitive, Unbound [2]: 93.92%

Substance: HWRGWV [Ac-HWRGWV, acetylated HWRGWV on resin, 0.080 mmol/g]
- qm ([3]; substitution 0.080 mmol/g): 130 mg/g and 130.8 mg/g
- Kd [3, 10]: 3.8 µM

Substance: Protein A: protein A immobilized by the CNBr method to 4% cross-linked agarose beads (Amersham Biosciences); positive control [reference compound]
- Capacity ([1]; 4% cross-link agarose): 20 mg/ml mg/ml moist gel

Substance: KLQWVH (Immunoglobulin binding peptide sequence) [from KLQMVX, with the substitution of M with W and X with H]
- Competitive condition, Bound [2]: 12.15%
- Competitive condition, Unbound [2]: 87.85%

Substance: HYFKFD [hexapeptide ligand on Toyopearl resin, 0.1 meq/g]
- Competitive condition, Unbound [2]: 56.74%
- Non-competitive, Bound [2]: 69.31%
- Non-competitive, Unbound [2]: 30.69%
- qm [3, 5]: 126.8 mg/g
- Kd ([3]; Table 6, direct Langmuir fit, 0.1 meq/g, PBS pH 7.4, read-out: Kd): 11.4 µM

Substance: HVWQLK (not fully specified (C-terminus)) [hexapeptide ligand on Toyopearl resin]
- Competitive condition, Bound [2]: 15.05%
- Competitive condition, Unbound [2]: 84.95%

Substance: HEILYW (not fully specified (C-terminus)) [hexapeptide ligand on Toyopearl resin]
- Bound %, HIgG, Competitive [2]: 5.50%
- Bound %, HIgG, Non-competitive (Micro-BCA) [2]: 9.16%
- Bound %, Fc fragment, Non-competitive [4]: 18.01%
- Bound %, Fc fragment, Competitive [4]: 3.20%

Substance: HRPKIF [HRPLIF]
- Bound %, HIgG, Competitive [2]: 4.51%
- Bound %, HIgG, Non-competitive (Micro-BCA) [2]: 11.20%
- Bound %, Fc fragment, Non-competitive [4]: 21.46%
- Bound %, Fc fragment, Competitive [4]: 24.48%

Substance: HANGFL (not fully specified (C-terminus)) [hexapeptide ligand on Toyopearl resin]
- Bound %, HIgG, Competitive [2]: 5.58%
- Bound %, HIgG, Non-competitive (Micro-BCA) [2]: 10.52%
- Bound %, Fc fragment, Non-competitive [4]: 10.23%
- Bound %, Fc fragment, Competitive [4]: 25.64%

Substance: EPIHRSTLTALL (not fully specified) [literature peptide ligand on Amino-NuGel (Hoffman LaRoche)]
- Capacity ([1]; Amino-NuGel support, IgG source culture): 320 μg/g μg/g gel

Substance: HLKWYA (not fully specified (C-terminus)) [hexapeptide ligand on Toyopearl resin]
- Competitive condition, Bound [2]: 23.47%
- Competitive condition, Unbound [2]: 76.53%

Substance: HWIDPL (not fully specified (C-terminus)) [hexapeptide ligand on Toyopearl resin]
- Competitive condition, Bound [2]: 19.91%
- Competitive condition, Unbound [2]: 80.09%
- Non-competitive, Bound [2]: 9.03%
- Non-competitive, Unbound [2]: 90.97%

Substance: HYIDAK (not fully specified (C-terminus)) [hexapeptide ligand on Toyopearl resin]
- Competitive condition, Bound [2]: 8.64%
- Competitive condition, Unbound [2]: 91.36%

Substance: HPWYVT (not fully specified (C-terminus)) [hexapeptide ligand on Toyopearl resin]
- Competitive condition, Bound [2]: 26.96%
- Competitive condition, Unbound [2]: 73.04%

Substance: Mannosylerythritol lipid
- Capacity ([1]; Poly(2-hydroxyethyl methacrylate) support): 106 mg/g mg/g gel

Substance: HWRGWV [hexapeptide ligand on Toyopearl AF-amino-650 M resin; 0.1 meq/g unless another substitution is stated]
- Kd [3, 6]: 1.33 µM
- qm, Langmuir [3, 7]: 50.0 mg/g
- Kd [3, 8]: 2.8 µM
- qm, DR curve [3, 9]: 54.8 mg/g
- qm ([3]; substitution 0.022 mmol/g): 158.1 mg/g
- Kd ([3]; substitution 0.022 mmol/g, read-out: Kd): 30 µM
- qm ([3]; substitution 0.040 mmol/g): 147.8 mg/g
- Kd ([3]; substitution 0.040 mmol/g, read-out: Kd): 20.3 µM
- qm ([3]; substitution 0.080 mmol/g): 130 mg/g and 131.8 mg/g
- Kd [3, 10]: 7.25 µM
- qm ([3]; substitution 0.10 mmol/g (different synthesis batch)): 133.6 mg/g
- Kd ([3]; substitution 0.10 mmol/g (different synthesis batch), read-out: Kd): 10.4 µM
- qm ([3]; substitution 0.22 mmol/g): 136.8 mg/g
- Kd ([3]; substitution 0.22 mmol/g, read-out: Kd): 2.58 µM
- qm ([3]; substitution 0.55 mmol/g): 137.6 mg/g
- Kd ([3]; substitution 0.55 mmol/g, read-out: Kd): 0.947 µM

Substance: HFDKGF (not fully specified (C-terminus)) [hexapeptide ligand on Toyopearl resin]
- Bound %, HIgG, Competitive [2]: 6.01%
- Bound %, HIgG, Non-competitive (Micro-BCA) [2]: 10.66%
- Bound %, Fc fragment, Non-competitive [4]: 12.95%
- Bound %, Fc fragment, Competitive [4]: 4.28%

Substance: HVHYYW [hexapeptide ligand on Toyopearl resin, 0.1 meq/g]
- Competitive condition, Unbound [2]: 56.73%
- Non-competitive, Bound [2]: 55.49%
- Non-competitive, Unbound [2]: 44.51%
- qm [3, 5]: 129.0 mg/g

Substance: HYGLGW (not fully specified (C-terminus)) [hexapeptide ligand on Toyopearl resin]
- Bound %, HIgG, Competitive [2]: 14.48%
- Bound %, HIgG, Non-competitive (Micro-BCA) [2]: 17.89%
- Bound %, Fc fragment, Non-competitive [4]: 19.75%
- Bound %, Fc fragment, Competitive [4]: 4.91%

Substance: HIQLDG (not fully specified (C-terminus)) [hexapeptide ligand on Toyopearl resin]
- Competitive condition, Bound [2]: 10.03%
- Competitive condition, Unbound [2]: 89.97%

Substance: KRGFYY (Immunoglobulin binding peptide sequence) [combination of KRXXXX, KXXGX and aromatic amino acids F and YY]
- Competitive condition, Bound [2]: 17.27%
- Competitive condition, Unbound [2]: 82.73%
